Assay results: paper PMC10482975 (Nature Communications, 2023)

How the values were obtained:
[1] = biological target: T1, M5 mAChR WT (Homo sapiens, UniProt P08912); assay: [3H]-NMS radioligand dissociation binding, M5 mAChR WT
T1 construct: expressed in transfected cells
T1 sequence (P08912 1-532): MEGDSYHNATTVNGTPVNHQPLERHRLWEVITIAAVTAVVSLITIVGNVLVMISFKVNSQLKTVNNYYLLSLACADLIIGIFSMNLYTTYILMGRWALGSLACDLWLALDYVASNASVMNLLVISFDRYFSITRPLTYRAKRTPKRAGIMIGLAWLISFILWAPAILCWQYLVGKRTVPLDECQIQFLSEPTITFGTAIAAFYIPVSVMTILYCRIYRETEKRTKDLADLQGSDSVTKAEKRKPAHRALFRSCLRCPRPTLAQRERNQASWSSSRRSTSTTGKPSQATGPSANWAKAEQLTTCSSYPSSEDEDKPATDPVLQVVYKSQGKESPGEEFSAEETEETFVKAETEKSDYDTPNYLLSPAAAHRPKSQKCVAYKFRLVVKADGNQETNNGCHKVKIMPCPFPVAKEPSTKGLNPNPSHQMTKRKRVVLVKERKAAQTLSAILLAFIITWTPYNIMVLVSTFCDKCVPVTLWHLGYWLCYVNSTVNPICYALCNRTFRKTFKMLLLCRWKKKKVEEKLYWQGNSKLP
Method: (§1) Flp-In Chinese hamster ovary (CHO) (Thermo Fisher Scientific) cells stably expressing mAChR WTs or mutant constructs were cultured in Dulbecco’s modified Eagle’s medium (DMEM, Invitrogen) containing 5% foetal bovine serum (FBS; ThermoTrace) and […] of hygromycin (Roche) in a humidified incubator (37 °C, 5% CO2). Upon reaching confluence, media was removed, cells were washed with phosphate buffered saline (PBS) and harvested from tissue culture flasks using versene (PBS with 0.2 g EDTA). Cells were then pelleted through centrifugation at 350 × g for three minutes followed by resuspension in DMEM + 5% FBS. Cells were then either plated for an assay or reseeded into a tissue culture flask.

[2] = biological target: T2, M4 mAChR WT (Homo sapiens, UniProt P08173); assay: [3H]-NMS radioligand dissociation binding, M4 mAChR WT; settings: for [3H]-NMS binding remaining (0 min = 100), MEAN: M4 mAChR
T2 construct: expressed in transfected cells
T2 sequence (P08173 1-479): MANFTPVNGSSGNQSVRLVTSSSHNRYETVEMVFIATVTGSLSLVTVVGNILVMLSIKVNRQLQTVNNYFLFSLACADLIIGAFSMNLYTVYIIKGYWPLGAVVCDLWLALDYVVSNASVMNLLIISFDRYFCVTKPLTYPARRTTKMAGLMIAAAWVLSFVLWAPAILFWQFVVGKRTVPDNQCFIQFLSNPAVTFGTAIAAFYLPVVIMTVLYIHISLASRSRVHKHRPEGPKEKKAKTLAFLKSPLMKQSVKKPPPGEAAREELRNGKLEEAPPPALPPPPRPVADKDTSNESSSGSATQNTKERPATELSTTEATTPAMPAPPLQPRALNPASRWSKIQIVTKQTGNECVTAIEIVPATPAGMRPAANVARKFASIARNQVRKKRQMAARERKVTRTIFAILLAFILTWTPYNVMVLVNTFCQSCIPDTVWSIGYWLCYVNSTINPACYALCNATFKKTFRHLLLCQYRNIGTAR
Method: as §1

[3] = biological target: T3, M2 mAChR WT (Homo sapiens, UniProt P08172); assay: [3H]-NMS radioligand dissociation binding, M2 mAChR WT
T3 construct: expressed in transfected cells
T3 sequence (P08172 1-466): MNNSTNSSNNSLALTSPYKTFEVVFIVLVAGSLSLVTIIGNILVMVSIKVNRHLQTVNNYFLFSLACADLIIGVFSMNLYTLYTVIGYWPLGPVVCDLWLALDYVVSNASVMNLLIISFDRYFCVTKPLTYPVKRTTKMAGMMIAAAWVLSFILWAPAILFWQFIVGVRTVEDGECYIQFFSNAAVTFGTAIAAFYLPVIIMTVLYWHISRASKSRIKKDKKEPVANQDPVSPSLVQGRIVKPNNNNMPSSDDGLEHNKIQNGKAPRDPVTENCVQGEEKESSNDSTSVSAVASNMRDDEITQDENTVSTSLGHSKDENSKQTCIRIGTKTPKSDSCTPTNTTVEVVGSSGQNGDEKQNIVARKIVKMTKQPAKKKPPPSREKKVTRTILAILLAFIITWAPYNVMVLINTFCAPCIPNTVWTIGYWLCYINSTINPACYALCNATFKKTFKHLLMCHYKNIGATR
Method: as §1

[4] = biological target: T4, M3 mAChR WT (Homo sapiens, UniProt P20309); assay: [3H]-NMS radioligand dissociation binding, M3 mAChR WT
T4 construct: expressed in transfected cells
Method: as §1

T4 sequence (P20309 whole entry): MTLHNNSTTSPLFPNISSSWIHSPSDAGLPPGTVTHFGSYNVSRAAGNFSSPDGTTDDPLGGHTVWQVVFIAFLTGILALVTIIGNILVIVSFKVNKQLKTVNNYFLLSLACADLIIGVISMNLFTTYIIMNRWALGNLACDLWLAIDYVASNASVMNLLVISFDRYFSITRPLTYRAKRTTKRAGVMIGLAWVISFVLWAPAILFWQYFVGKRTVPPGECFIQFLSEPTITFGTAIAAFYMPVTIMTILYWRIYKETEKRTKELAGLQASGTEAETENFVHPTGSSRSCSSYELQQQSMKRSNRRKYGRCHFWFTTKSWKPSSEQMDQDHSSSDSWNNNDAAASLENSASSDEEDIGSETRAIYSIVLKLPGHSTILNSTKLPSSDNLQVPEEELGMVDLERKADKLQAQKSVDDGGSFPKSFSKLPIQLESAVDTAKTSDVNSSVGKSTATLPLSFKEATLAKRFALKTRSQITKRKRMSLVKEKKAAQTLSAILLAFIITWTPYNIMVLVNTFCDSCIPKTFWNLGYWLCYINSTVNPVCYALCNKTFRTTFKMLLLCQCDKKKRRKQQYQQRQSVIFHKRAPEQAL

SMILES: CCCCCCOc1nsnc1C1=CCCN(C)C1 [xanomeline]
- allosteric effect on [3H]-NMS dissociation (in words) [1]: modest
- [3H]-NMS binding remaining (0 min = 100), MEAN ([1]; 10uM Atr + 10 μM Xano, 10 min): 90.3151
- [3H]-NMS binding remaining (0 min = 100), MEAN ([1]; 10uM Atr + 10 μM Xano, 15 min): 91.7238
- [3H]-NMS binding remaining (0 min = 100), MEAN ([1]; 10uM Atr + 10 μM Xano, 30 min): 85.9775
- [3H]-NMS binding remaining (0 min = 100), MEAN ([1]; 10uM Atr + 10 μM Xano, 90 min): 67.8458
- [3H]-NMS binding remaining (0 min = 100), MEAN ([1]; 10uM Atr + 10 μM Xano, 120 min): 51.752
- [3H]-NMS binding remaining (0 min = 100), MEAN ([1]; 10uM Atr + 10 μM Xano, 210 min): 35.86
- [3H]-NMS binding remaining (0 min = 100), MEAN ([1]; 10uM Atr + 30 μM Xano, 10 min): 92.3387
- [3H]-NMS binding remaining (0 min = 100), MEAN ([1]; 10uM Atr + 30 μM Xano, 15 min): 85.7238
- [3H]-NMS binding remaining (0 min = 100), MEAN ([1]; 10uM Atr + 30 μM Xano, 30 min): 100.331
- [3H]-NMS binding remaining (0 min = 100), MEAN ([1]; 10uM Atr + 30 μM Xano, 90 min): 61.0136
- [3H]-NMS binding remaining (0 min = 100), MEAN ([1]; 10uM Atr + 30 μM Xano, 120 min): 51.9105
- [3H]-NMS binding remaining (0 min = 100), MEAN ([1]; 10uM Atr + 30 μM Xano, 210 min): 31.039
- [3H]-NMS binding remaining (0 min = 100), MEAN ([1]; 10uM Atr + 100uM Xano, 10 min): 94.3264
- [3H]-NMS binding remaining (0 min = 100), MEAN ([1]; 10uM Atr + 100uM Xano, 15 min): 90.317
- [3H]-NMS binding remaining (0 min = 100), MEAN ([1]; 10uM Atr + 100uM Xano, 30 min): 106.159
- [3H]-NMS binding remaining (0 min = 100), MEAN ([1]; 10uM Atr + 100uM Xano, 90 min): 76.4682
- [3H]-NMS binding remaining (0 min = 100), MEAN ([1]; 10uM Atr + 100uM Xano, 120 min): 67.0445
- [3H]-NMS binding remaining (0 min = 100), MEAN ([1]; 10uM Atr + 100uM Xano, 210 min): 42.1563
- [3H]-NMS binding remaining (0 min = 100), MEAN ([2]; 10uM Atr + 10 μM Xano, 30 min): 87.1248
- [3H]-NMS binding remaining (0 min = 100), MEAN ([2]; 10uM Atr + 10 μM Xano, 90 min): 63.7927
- [3H]-NMS binding remaining (0 min = 100), MEAN ([2]; 10uM Atr + 10 μM Xano, 180 min): 32.9493
- [3H]-NMS binding remaining (0 min = 100), MEAN ([2]; 10uM Atr + 10 μM Xano, 300 min): 16.1247
- [3H]-NMS binding remaining (0 min = 100), MEAN ([2]; 10uM Atr + 30 μM Xano, 30 min): 96.6093
- [3H]-NMS binding remaining (0 min = 100), MEAN ([2]; 10uM Atr + 30 μM Xano, 90 min): 68.5782
- [3H]-NMS binding remaining (0 min = 100), MEAN ([2]; 10uM Atr + 30 μM Xano, 180 min): 42.1853
- [3H]-NMS binding remaining (0 min = 100), MEAN ([2]; 10uM Atr + 30 μM Xano, 300 min): 23.6351
- [3H]-NMS binding remaining (0 min = 100), MEAN ([2]; 10uM Atr + 100uM Xano, 30 min): 97.9496
- [3H]-NMS binding remaining (0 min = 100), MEAN ([2]; 10uM Atr + 100uM Xano, 60 min): 79.6399
- [3H]-NMS binding remaining (0 min = 100), MEAN ([2]; 10uM Atr + 100uM Xano, 180 min): 54.7449
- [3H]-NMS binding remaining (0 min = 100), MEAN ([2]; 10uM Atr + 100uM Xano, 300 min): 34.2485
- effect on [3H]-NMS dissociation (in words) ([2]; wild-type M4 mAChR, increasing concentrations of xanomeline, saturating concentration of iperoxo): progressively slowed
- allosteric effect on [3H]-NMS dissociation (in words) [3]: more pronounced
- IC50 [4]: 182 µM
- allosteric effect on [3H]-NMS dissociation (in words) ([4]; M3 mAChR): modest
- [3H]-NMS binding remaining (0 min = 100), MEAN ([4]; M3 mAChR, 10uM Atr + 10 μM Xano, 10 min): 102.824
- [3H]-NMS binding remaining (0 min = 100), MEAN ([4]; M3 mAChR, 10uM Atr + 10 μM Xano, 15 min): 94.4472
- [3H]-NMS binding remaining (0 min = 100), MEAN ([4]; M3 mAChR, 10uM Atr + 10 μM Xano, 30 min): 84.3079
- [3H]-NMS binding remaining (0 min = 100), MEAN ([4]; M3 mAChR, 10uM Atr + 10 μM Xano, 90 min): 53.078
- [3H]-NMS binding remaining (0 min = 100), MEAN ([4]; M3 mAChR, 10uM Atr + 10 μM Xano, 120 min): 40.5004
- [3H]-NMS binding remaining (0 min = 100), MEAN ([4]; M3 mAChR, 10uM Atr + 10 μM Xano, 210 min): 20.6349
- [3H]-NMS binding remaining (0 min = 100), MEAN ([4]; M3 mAChR, 10uM Atr + 30 μM Xano, 10 min): 103.273
- [3H]-NMS binding remaining (0 min = 100), MEAN ([4]; M3 mAChR, 10uM Atr + 30 μM Xano, 15 min): 95.5713
- [3H]-NMS binding remaining (0 min = 100), MEAN ([4]; M3 mAChR, 10uM Atr + 30 μM Xano, 30 min): 87.9383
- [3H]-NMS binding remaining (0 min = 100), MEAN ([4]; M3 mAChR, 10uM Atr + 30 μM Xano, 90 min): 53.4947
- [3H]-NMS binding remaining (0 min = 100), MEAN ([4]; M3 mAChR, 10uM Atr + 30 μM Xano, 120 min): 41.606
- [3H]-NMS binding remaining (0 min = 100), MEAN ([4]; M3 mAChR, 10uM Atr + 30 μM Xano, 210 min): 24.8398
- [3H]-NMS binding remaining (0 min = 100), MEAN ([4]; M3 mAChR, 10uM Atr + 100uM Xano, 10 min): 100.762
- [3H]-NMS binding remaining (0 min = 100), MEAN ([4]; M3 mAChR, 10uM Atr + 100uM Xano, 15 min): 94.0238
- [3H]-NMS binding remaining (0 min = 100), MEAN ([4]; M3 mAChR, 10uM Atr + 100uM Xano, 30 min): 90.7523
- [3H]-NMS binding remaining (0 min = 100), MEAN ([4]; M3 mAChR, 10uM Atr + 100uM Xano, 90 min): 62.8848
- [3H]-NMS binding remaining (0 min = 100), MEAN ([4]; M3 mAChR, 10uM Atr + 100uM Xano, 120 min): 45.8052
- [3H]-NMS binding remaining (0 min = 100), MEAN ([4]; M3 mAChR, 10uM Atr + 100uM Xano, 210 min): 29.7551
